Reference: patent publication US7960376B2, “Benzo-fused heterocycles” (priority 2007, dated 2011)

Assays:
Type in all cases: cell-based
rat CB2 receptor (rCB2) = biological target: T1, rat CB2 receptor (rCB2) (Rattus norvegicus, UniProt Q9QZN9); assay: cell-based; settings: intracellular cAMP, CHO-K1 cells, NKH-477 prestimulated; + agonist, − inverse agonist
T1 sequence (Q9QZN9 1-360): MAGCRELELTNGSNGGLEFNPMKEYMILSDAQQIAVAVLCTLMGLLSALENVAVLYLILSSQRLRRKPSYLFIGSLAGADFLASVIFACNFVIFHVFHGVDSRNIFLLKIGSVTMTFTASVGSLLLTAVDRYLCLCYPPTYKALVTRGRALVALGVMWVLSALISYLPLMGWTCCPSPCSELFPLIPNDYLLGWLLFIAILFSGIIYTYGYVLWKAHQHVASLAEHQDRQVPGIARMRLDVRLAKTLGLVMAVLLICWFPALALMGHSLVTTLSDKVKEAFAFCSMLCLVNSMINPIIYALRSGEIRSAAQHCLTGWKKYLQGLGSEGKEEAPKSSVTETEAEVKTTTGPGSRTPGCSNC

[1] = biological target: human CB1 receptor (hCB1) (Homo sapiens, UniProt P21554); assay: cAMP assay (LANCE TR-FRET) in CHO-K1 cells expressing hCB1; settings: intracellular cAMP, NKH-477 prestimulated, + agonist, − inverse agonist
[2] = biological target: human CB2 receptor (hCB2) (Homo sapiens, UniProt P34972); assay: cell-based; settings: intracellular cAMP, CHO-K1 cells, NKH-477 prestimulated; + agonist, − inverse agonist
Sequence of human CB2 receptor (hCB2) (P34972 whole entry): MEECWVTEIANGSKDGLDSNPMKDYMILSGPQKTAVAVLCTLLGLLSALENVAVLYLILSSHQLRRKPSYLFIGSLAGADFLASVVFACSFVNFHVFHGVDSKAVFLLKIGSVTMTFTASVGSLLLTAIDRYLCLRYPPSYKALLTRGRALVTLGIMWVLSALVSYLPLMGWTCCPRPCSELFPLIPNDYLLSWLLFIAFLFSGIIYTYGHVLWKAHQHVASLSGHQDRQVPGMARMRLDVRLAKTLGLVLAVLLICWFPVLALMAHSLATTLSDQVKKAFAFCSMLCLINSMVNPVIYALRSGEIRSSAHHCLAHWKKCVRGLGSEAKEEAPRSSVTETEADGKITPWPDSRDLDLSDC

Sequence of human CB1 receptor (hCB1) (P21554 whole entry): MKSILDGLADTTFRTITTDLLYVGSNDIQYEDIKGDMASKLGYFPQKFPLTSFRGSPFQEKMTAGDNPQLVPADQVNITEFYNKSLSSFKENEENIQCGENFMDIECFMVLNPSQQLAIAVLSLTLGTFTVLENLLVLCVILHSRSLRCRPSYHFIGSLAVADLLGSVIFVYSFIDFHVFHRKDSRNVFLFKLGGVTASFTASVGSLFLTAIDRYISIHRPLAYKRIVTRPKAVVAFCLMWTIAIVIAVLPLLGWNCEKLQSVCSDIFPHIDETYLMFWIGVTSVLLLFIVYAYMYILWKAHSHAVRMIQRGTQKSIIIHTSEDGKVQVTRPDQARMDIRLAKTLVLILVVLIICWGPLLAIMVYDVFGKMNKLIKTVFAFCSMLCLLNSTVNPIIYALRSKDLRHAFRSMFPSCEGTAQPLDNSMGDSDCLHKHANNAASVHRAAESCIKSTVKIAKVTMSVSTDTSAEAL

Row | Structure (SMILES) | rCB2 EC50 range (rat CB2 receptor (rCB2)) | hCB1 EC50 range [1] | hCB2 EC50 range [2]
1 | O=C(NC1CCCC1)c1ccc2c(c1)N(C(=O)c1ccccc1)CCS2 [Example 14, 4-benzoyl-N-cyclopentyl-3,4-dihydro-2H-benzo[b][1,4]thiazine-6-carboxamide] | −D | −E | −E
2 | O=C(NC12CC3CC(CC(C3)C1)C2)c1ccc2c(c1)N(C(=O)c1ccccc1)CCS2 [Example 21, 4-benzoyl-N-(1-adamantyl)-3,4-dihydro-2H-benzo[b][1,4]thiazine-6-carboxamide] | −D | −E | −E
3 | O=C(NC12CC3CC(CC(C3)C1)C2)c1ccc2c(c1)N(C(=O)c1ccc(F)cc1)CCS2 [Example 22] | −D | −E | −E
4 | Cc1ccc(C(=O)N2CCSc3ccc(C(=O)NC45CC6CC(CC(C6)C4)C5)cc32)cc1 [Example 23, N-(1-adamantyl)-4-(4-methylbenzoyl)-3,4-dihydro-2H-benzo[b][1,4]thiazine-6-carboxamide] | −D | −E | −E
5 | O=C(NC12CC3CC(CC(C3)C1)C2)c1ccc2c(c1)N(C(=O)c1ccc(Cl)cc1)CCS2 [Example 24, N-(1-adamantyl)-4-(4-chlorobenzoyl)-3,4-dihydro-2H-benzo[b][1,4]thiazine-6-carboxamide] | −D | −E | −E
6 | COc1ccc(C(=O)N2CCSc3ccc(C(=O)NC45CC6CC(CC(C6)C4)C5)cc32)cc1 [Example 25, N-(1-adamantyl)-4-(4-methoxybenzoyl)-3,4-dihydro-2H-benzo[b][1,4]thiazine-6-carboxamide] | −D | −E | −E
7 | CC(C)C(=O)N1CCSc2ccc(C(=O)NC34CC5CC(CC(C5)C3)C4)cc21 [Example 40, N-(1-adamantyl)-4-isobutyryl-3,4-dihydro-2H-benzo[b][1,4]thiazine-6-carboxamide] | −D | −E | +D
8 | O=C(c1ccc2c(c1)N(S(=O)(=O)c1ccc(F)cc1)CCS2)N1CCOCC1 [Example 42, (4-(4-fluorophenylsulfonyl)-3,4-dihydro-2H-benzo[b][1,4]thiazin-6-yl)(morpholino)methanone] | +C | +E | +D
9 | CC(C)CNC(=O)c1ccc2c(c1)N(S(=O)(=O)c1ccc(F)cc1)CCS2 [Example 43, 4-(4-fluorophenylsulfonyl)-N-isobutyl-3,4-dihydro-2H-benzo[b][1,4]thiazine-6-carboxamide] | +A | +D | +B
10 | CC(C)(C)NC(=O)c1ccc2c(c1)N(S(=O)(=O)c1ccc(F)cc1)CCS2 [Example 47, N-tert-butyl-4-(4-fluorophenylsulfonyl)-3,4-dihydro-2H-benzo[b][1,4]thiazine-6-carboxamide] | +A | +E | +B
11 | COCCCNC(=O)c1ccc2c(c1)N(S(=O)(=O)c1ccc(F)cc1)CCS2 [Example 49, 4-(4-fluorophenylsulfonyl)-N-(3-methoxypropyl)-3,4-dihydro-2H-benzo[b][1,4]thiazine-6-carboxamide] | +A | +E | +C
12 | CC(C)CNC(=O)c1ccc2c(c1)N(S(=O)(=O)c1ccc(Cl)cc1)CCO2 [Example 58, 4-(4-chlorophenylsulfonyl)-N-isobutyl-3,4-dihydro-2H-benzo[b][1,4]oxazine-6-carboxamide] | +A | +D | +B
13 | CC(C)CNC(=O)c1ccc2c(c1)N(S(=O)(=O)c1ccc(F)cc1)CCO2 [Example 60, 4-(4-fluorophenylsulfonyl)-N-isobutyl-3,4-dihydro-2H-benzo[b][1,4] oxazine-6-carboxamide] | +B | +D | +B
14 | O=C(NC1CCCC1)c1ccc2c(c1)N(S(=O)(=O)c1ccccc1)CCO2 [Example 61, N-cyclopentyl-4-(phenylsulfonyl)-3,4-dihydro-2H-benzo[b][1,4]oxazine-6-carboxamide] | +C | +E | +C
15 | O=C(NC1CCCC1)c1ccc2c(c1)N(S(=O)(=O)c1ccc(F)cc1)CCO2 [Example 62, N-cyclopentyl-4-(4-fluorophenylsulfonyl)-3,4-dihydro-2H-benzo[b][1,4]oxazine-6-carboxamide] | +A | +D | +B
16 | O=C(NC1CCCC1)c1ccc2c(c1)N(S(=O)(=O)c1ccc(Cl)cc1)CCO2 [Example 63, 4-(4-chlorophenylsulfonyl)-N-cyclopentyl-3,4-dihydro-2H-benzo[b][1,4]oxazine-6-carboxamide] | +A | +D | +B
17 | O=C(c1ccc2c(c1)N(S(=O)(=O)c1ccc(F)cc1)CCS2)N1CCCC1 [Example 71] | +C | +E | +C
18 | CCN(CC)C(=O)c1ccc2c(c1)N(S(=O)(=O)c1ccc(C(F)(F)F)cc1)CCS2 [Example 73, N,N-diethyl-4-(4-(trifluoromethyl)phenylsulfonyl)-3,4-dihydro-2H-benzo[b][1,4]thiazine-6-carboxamide] | +C | +E | +C
19 | O=C(c1ccc2c(c1)N(S(=O)(=O)c1ccc(F)cc1)CCS2)N1CCCCC1 [Example 77] | +C | +E | +C
20 | CC(C)(C)c1noc(-c2ccc3c(c2)N(S(=O)(=O)c2ccc(C(F)(F)F)cc2)CCS3)n1 [Example 82, 3-tert-butyl-5-(4-(4-(trifluoromethyl)phenylsulfonyl)-3,4-dihydro-2H-benzo[b][1,4]thiazin-6-yl)-1,2,4-oxadiazole] | +B | +D | +B
21 | O=S(=O)(c1ccc(F)cc1)N1CCSc2ccc(-c3nc(-c4ccccn4)no3)cc21 [Example 83, 5-(4-(4-fluorophenylsulfonyl)-3,4-dihydro-2H-benzo[b][1,4]thiazin-6-yl)-3-(pyridin-2-yl)-1,2,4-oxadiazole] | +B | +D | +C
22 | CC(C)(C)c1noc(-c2ccc3c(c2)N(S(=O)(=O)c2ccccc2)CCS3)n1 [Example 84] | +A | +E | +C
23 | CC(C)(C)c1noc(-c2ccc3c(c2)N(S(=O)(=O)c2ccc(F)cc2)CCS3)n1 [Example 85, 3-tert-butyl-5-(4-(4-fluorophenylsulfonyl)-3,4-dihydro-2H-benzo[b][1,4]thiazin-6-yl)-1,2,4-oxadiazole] | +B | +D | +B
